Several values for one entry are separate records, joined by “and”; a condition that tells them apart may be missing. Identical values can stand only once. Marks after values point to notes of the source that are not given here.
Legend:
Format in all cases: in vivo, Sprague Dawley rats
[1] = test system: uterine eosinophil peroxidase activity; test: Uterine eosinophil peroxidase (EPO) assay, four day dosing; conditions: for Uterine EPO (Vmax): OVX rats, oral, daily for 4 days
Experimental: (§1) Animals were dosed daily for 4 days. […] A blood sample was collected by cardiac puncture.

[2] = test system: ovariectomized (OVX) rats; test: Four day dosing regimen, post-menopausal rat model: wet uterine weight; conditions: for Uterine Weight (% inc. OVX): OVX rats, oral, daily for 4 days
Experimental: as §1

[3] = test system: ovariectomized (OVX) rats; test: Serum cholesterol analysis, four day dosing
Experimental: as §1
Blood samples were allowed to clot at room temperature for 2 hours, and serum was obtained following centrifugation for 10 minutes at 3000 rpm. Serum cholesterol was determined using a Boehringer Mannheim Diagnostics high performance cholesterol assay. Briefly the cholesterol was oxidized to cholest-4-en-3-one and hydrogen peroxide. The hydrogen peroxide was then reacted with phenol and 4-aminophenazone in the presence of peroxidase to produce a p-quinone imine dye, which was read spectrophotemetrically at 500 nm. Cholesterol concentration was then calculated against a standard curve. The entire assay was automated using a Biomek Automated Workstation.

[4] = test system: ovariectomized (OVX) rats; test: Thirty-five day dosing regimen: bone density assay (tibia, single photon absorptiometry); conditions: oral in 20% hydroxypropyl β-cyclodextrin, daily for 35 days
Experimental: Following the General Preparation procedure described above, the rats were treated daily for 35 days (6 rats per treatment group) and sacrificed by decapitation on the 36th day. The 35 day time period was sufficient to allow maximal effect on bone density, measured as described herein. At the time of sacrifice, the uteri were removed, dissected free of extraneous tissue, and the fluid contents were expelled before determination of wet weight in order to confirm estrogen deficiency associated with complete ovariectomy. […] The uteri were then placed in 10% neutral buffered formalin to allow for subsequent histological analysis. The right tibias were excised and scanned at the distal metaphysis 1 mm from the patellar groove with single photon absorptiometry. Results of the densitometer measurements represent a calculation of bone density as a function of the bone mineral content and bone width. In accordance with the procedures outlined above, compounds of the present invention and EE2 in 20% hydroxypropyl β-cyclodextrin were orally administered to test animals.

[5] = Rattus norvegicus, po, 96 h, OVX rats, oral, daily for 4 days, read-out: Serum Cholesterol (% dec. OVX)

SMILES | Uterine EPO (Vmax) ([1]; dose 0.1 mg/kg) | Uterine EPO (Vmax) ([1]; dose 1 mg/kg) | Uterine EPO (Vmax) ([1]; dose 10 mg/kg) | Uterine Weight (% inc. OVX) ([2]; dose 0.1 mg/kg) | Uterine Weight (% inc. OVX) ([2]; dose 1 mg/kg) | Uterine Weight (% inc. OVX) ([2]; dose 10 mg/kg) | eosinophil infiltration into the uterus, by eosinophil peroxidase activity (in words) ([1]; ovariectomized rats) | effect on uterine weight compared to ovariectomized animals (in words) ([2]; EE2 orally at 0.1 mg/Kg/day) | Uterine EPO (Vmax) ([1]; dose 0.01 mg/kg) | Uterine Weight (% inc. OVX) ([2]; dose 0.01 mg/kg) | effect on serum cholesterol compared to ovariectomized control animals (in words) ([3]; EE2 orally at 0.1 mg/Kg/day) | tibia density / bone loss after ovariectomy (in words) [4] | inhibition in vivo at 0.1 mg/kg [3, 5] | inhibition in vivo at 1 mg/kg [3, 5] | inhibition in vivo at 10 mg/kg [3, 5] | inhibition in vivo at 0.01 mg/kg ([3]; Rattus norvegicus, po, 96 h, OVX rats, oral, daily for 4 days, dose 0.01 mg/kg, read-out: Serum Cholesterol (% dec. OVX))
O=C(c1ccc(OCCN2C(=O)CCC2=O)cc1)c1c(-c2ccc(O)cc2)sc2cc(O)ccc12 [Compound 13] | 1.9 Vmax | 1.7 Vmax | 2.5 Vmax | 22.2 % inc. OVX | 7.2 % inc. OVX | −4.0 % inc. OVX |  |  |  |  |  |  |  |  |  | 
C#C[C@]1(O)CC[C@H]2[C@@H]3CCc4cc(O)ccc4[C@H]3CC[C@@]21C [ethynyl estradiol, 17α-Ethynyl estradiol, reference compound] | 120.0* Vmax |  |  | 235.2* % inc. OVX |  |  | substantial, expected increase | substantially greater |  |  | decrease in serum cholesterol | prevented this loss |  |  |  | 
CC(C#N)Oc1ccc(C(=O)c2c(-c3ccc(O)cc3)sc3cc(O)ccc23)cc1 (stereo not shown) [Compound 16] | 2.3 Vmax | 3.9 Vmax | 23.4 Vmax | 0.7 % inc. OVX | 27.4 % inc. OVX | 99.2* % inc. OVX |  |  |  |  |  |  | 3.4% | 28.8% | 71.2% | 
CCCCN(C)C(=O)COc1ccc(C(=O)c2c(-c3ccc(O)cc3)sc3cc(O)ccc23)cc1 [Compound 10] | 4.3 Vmax | 3.1 Vmax | 17.0 Vmax | 1.5 % inc. OVX | −6.7 % inc. OVX | 38.0* % inc. OVX |  |  |  |  |  |  |  |  |  | 
CC(C)(C)C(=O)N1CCC(Oc2ccc(C(=O)c3c(-c4ccc(O)cc4)sc4cc(O)ccc34)cc2)CC1 [Compound 23] | 1.6 Vmax | 3.8 Vmax | 6.7 Vmax | −4.3 % inc. OVX | 0.8 % inc. OVX | 22.3 % inc. OVX |  |  |  |  |  |  |  |  | 55.8% | 
N#CCOc1ccc(C(=O)c2c(-c3ccc(O)cc3)sc3cc(O)ccc23)cc1 [Compound 14] | 3.3 Vmax | 2.4 Vmax | 145.8* Vmax | 18.8 % inc. OVX | 14.6 % inc. OVX | 124.6* % inc. OVX |  |  |  |  |  |  |  |  | 91.1% | 
CN(C)C(=O)COc1ccc(C(=O)c2c(-c3ccc(O)cc3)sc3cc(O)ccc23)cc1 [Compound 12] | 3.7 Vmax | 6.7 Vmax | 122.3* Vmax | −7.7 % inc. OVX | 15.4 % inc. OVX | 60.7* % inc. OVX |  |  |  |  |  |  |  |  |  | 
CC(C)(C)C(=O)N1CCCCC1COc1ccc(C(=O)c2c(-c3ccc(O)cc3)sc3cc(O)ccc23)cc1 (stereo not shown) [Compound 22] | 3.5 Vmax | 20.0 Vmax | 69.5* Vmax | 1.9 % inc. OVX | 19.6 % inc. OVX | 46.9* % inc. OVX |  |  |  |  |  |  | 22.1% | 36.2% | 71.5% | 

Second part, led by results:

Uterine EPO (Vmax) ([1]; dose 0.1 mg/kg) | Uterine EPO (Vmax) ([1]; dose 1 mg/kg) | Uterine EPO (Vmax) ([1]; dose 10 mg/kg) | Uterine Weight (% inc. OVX) ([2]; dose 0.1 mg/kg) | Uterine Weight (% inc. OVX) ([2]; dose 1 mg/kg) | Uterine Weight (% inc. OVX) ([2]; dose 10 mg/kg) | eosinophil infiltration into the uterus, by eosinophil peroxidase activity (in words) ([1]; ovariectomized rats) | effect on uterine weight compared to ovariectomized animals (in words) ([2]; EE2 orally at 0.1 mg/Kg/day) | Uterine EPO (Vmax) ([1]; dose 0.01 mg/kg) | Uterine Weight (% inc. OVX) ([2]; dose 0.01 mg/kg) | SMILES | effect on serum cholesterol compared to ovariectomized control animals (in words) ([3]; EE2 orally at 0.1 mg/Kg/day) | tibia density / bone loss after ovariectomy (in words) [4] | inhibition in vivo at 0.1 mg/kg [3, 5] | inhibition in vivo at 1 mg/kg [3, 5] | inhibition in vivo at 10 mg/kg [3, 5] | inhibition in vivo at 0.01 mg/kg ([3]; Rattus norvegicus, po, 96 h, OVX rats, oral, daily for 4 days, dose 0.01 mg/kg, read-out: Serum Cholesterol (% dec. OVX))
8.0 Vmax | 7.8 Vmax | 8.9 Vmax | 13.3 % inc. OVX | 17.8 % inc. OVX | 57.6* % inc. OVX |  |  |  |  | O=C(c1ccc(OCCN2CCCCC2=O)cc1)c1c(-c2ccc(O)cc2)sc2cc(O)ccc12 [Compound 3] |  |  |  |  |  | 
2.8 Vmax | 3.6 Vmax | 32 Vmax | −10.0 % inc. OVX | 6.5 % inc. OVX | 51.7* % inc. OVX |  |  |  |  | O=C(c1ccc(OCC(=O)N2CCCCC2)cc1)c1c(-c2ccc(O)cc2)sc2cc(O)ccc12 [Compound 9] |  |  |  |  |  | 
3.2 Vmax | 3.6 Vmax | 3.6 Vmax | 16.1 % inc. OVX | 25.7 % inc. OVX | 12.6 % inc. OVX |  |  |  |  | O=C(NCCOc1ccc(C(=O)c2c(-c3ccc(O)cc3)sc3cc(O)ccc23)cc1)c1ccccc1 [Compound 18] |  |  | -10.8% | -12.2% | 12.8% | 
1.3 Vmax | 0.7 Vmax | 13.6 Vmax | −17.5 % inc. OVX | −28.8* % inc. OVX | 25.8* % inc. OVX |  |  |  |  | CC(=O)NCCOc1ccc(C(=O)c2c(-c3ccc(O)cc3)sc3cc(O)ccc23)cc1 [Compound 26] |  |  |  | 19% | 32.8% | 
3.6 Vmax | 1.4 Vmax | 3.7 Vmax | −9 % inc. OVX | 15.4 % inc. OVX | 40.3* % inc. OVX |  |  |  |  | O=C(c1ccc(OCCN2CCCC2=O)cc1)c1c(-c2ccc(O)cc2)sc2cc(O)ccc12 [Compound 6] |  |  |  |  |  | 
3.6 Vmax and 4.4 Vmax | 6.1 Vmax and 3.7 Vmax |  |  |  |  |  |  | 3.5 Vmax | −22.9 % inc. OVX | O=C(c1ccc(OCC(=O)N2CCCC2)cc1)c1c(-c2ccc(O)cc2)sc2cc(O)ccc12 [Compound 8] |  |  | 17.4% |  | 70.3% | 27.2%
3.0 Vmax | 2.5 Vmax | 2.9 Vmax | −29.9 % inc. OVX | −27.4 % inc. OVX | −32.7 % inc. OVX |  |  |  |  | O=C(NCCOc1ccc(C(=O)c2c(-c3ccc(O)cc3)sc3cc(O)ccc23)cc1)NC1CCCCC1 [Compound 20] |  |  |  |  |  | 
5.4 Vmax | 3.7 Vmax | 29.3* Vmax | 7 % inc. OVX | −25.5* % inc. OVX | 47.0* % inc. OVX |  |  |  |  | CC(=O)N(CCOc1ccc(C(=O)c2c(-c3ccc(O)cc3)sc3cc(O)ccc23)cc1)C1CCCCC1 [Compound 19] |  |  |  | 20.1% | 52.2% | 
3.1 Vmax | 2.6 Vmax | 2.4 Vmax | −5.5 % inc. OVX | −11.5 % inc. OVX | 8.6 % inc. OVX |  |  |  |  | O=C(c1ccc(OCCNC(=O)C2CCCCC2)cc1)c1c(-c2ccc(O)cc2)sc2cc(O)ccc12 [Compound 21] |  |  | 9.3% | 0.5% | 24% | 
